Test results published in PMC13053910, “Covalent Protein Inhibitors via Tyrosine and Tryptophan Conjugation with Cyclic Imine Mannich Electrophiles” (Angewandte Chemie (International Ed. in English), 2026).
pIC50: −log10 of the molar value. Read-outs that look alike come from different tables or passages of the source.

Key:
[1] = Stability of warheads and inhibitors (solid, PBS, hydrolysis); assay type: physicochemical; conditions: 24 h in aqueous buffer, then sodium cyanoborohydride, mass spectrometry
Description: To be suitable for chemical probe and therapeutic applications, the warhead should show good stability. In general, we found the iminolactam warheads to be quite stable. Compound 1 was stable as a solid at room temperature for over 3 months. […] After 24‐h in aqueous buffer, compounds were treated with sodium cyanoborohydride. […] The synthetic strategy of in situ formation of imines by periodate treatment was pursued to avoid concerns of warhead reactivity with the ligand itself to either the peptide backbone or the phenoxyphenyl aryl group. This appears to have been unnecessary, at least for the iminolactam warhead. […] The more reactive ester imine may be forming semi‐stable cyclized products with the amide backbone, which have been observed previously with peptide aldehydes.^[ [51], [52] ^] Due to these issues, we selected compound P1b for further characterization.

[2] = target: T1, CBX8 ChD (Homo sapiens, UniProt Q9HC52); assay: Time-dependent fluorescence polarization displacement assay, CBX8 ChD; assay type: binding; conditions: Figure 5d, CBX8 ChD 2 µM, PBS pH 7
T1 construct: CBX chromodomain constructs (addgene plasmid #25158 (CBX2), and #62514 (CBX8, provided by Cheryl Arrowsmith)); 6His; host or cells: E. coli (BL21 CodonPlus RIL or Rosetta 2)
T1 sequence (Q9HC52 11-69 limits assumed): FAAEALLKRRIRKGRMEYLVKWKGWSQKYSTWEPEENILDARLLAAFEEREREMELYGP

[3] = target: T2, CBX2 ChD (Homo sapiens, UniProt Q14781); assay: Time-dependent fluorescence polarization displacement assay, CBX2 ChD; assay type: binding; conditions: for pIC50: Figure 5d, CBX2 ChD 2 µM, probe 100 nM
T2 construct: CBX chromodomain constructs (addgene plasmid #25158 (CBX2), and #62514 (CBX8, provided by Cheryl Arrowsmith)); 6His; host or cells: E. coli (BL21 CodonPlus RIL or Rosetta 2)
T2 sequence (Q14781 12-70 limits assumed): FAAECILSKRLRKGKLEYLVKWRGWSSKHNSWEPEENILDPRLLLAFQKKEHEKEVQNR
Description: Observed masses are shown (expected average mass for CBX8 ChD = 8792 Da). The observed mass difference (913 Da) agrees with the expected mass change of 913 Da. b) Labeled protein was detected by gel shift on 16.5% Tris‐Tricine SDS‐PAGE. […] Gel analysis was conducted on a 2.5% agarose gel in 10 mM sodium borate buffer. […] Assays were conducted using SW2_113 as an FP probe (Figure S20) at 100 nM. All proteins were used at 2 µM in PBS (pH 7), 0.02% Tween 20. Error bars represent SD. […] (μM); no other compound label is printed beside the IC50 lines
2.2 Fluorescence Displacement Assay to Evaluate Time-dependent potency of Imine Covalent Inhibitors to CBX ChD. Fluorescence polarization (FP) was measured by titration of CBX ChDs (CBX8 ChD/CBX8 ChD Y39F/CBX2 ChD) to a fluoresceine-labelled probe as previously reported ^1. Fluorescence displacement assays were performed in black 384-well plates with optical bottoms. Buffer used in FP assays consists of 100 mM Na2HPO4, 150 mM NaCl, 0.02% Tween 20. […] Two-fold dilutions of covalent inhibitors were used, starting with 100 µM as highest peptide concentration to 0.049 µM as the lowest. Four replicates were tested at each concentration. Fluorescence anisotropy was read at different time points. Raw data were analyzed using GraphPad Prism 7 following a “one site-Fit logIC50” competition model with any outliers (95 % confidence interval) being excluded.
Time-dependent fluorescence displacement assay Fluorescence polarization (FP) was measured by titration of CBX ChDs (CBX8 ChD/CBX8 ChD Y39F/CBX2 ChD) to a fluorescein-labelled probe as previously reported.^8 Fluorescence displacement assays were performed in black 384-well plates with optical bottoms. Buffer used in FP assays consists of 100 mM Na2HPO4, 150 mM NaCl, 0.02% Tween 20. […] Fluorescence anisotropy was read at different time points. […] Raw data were analyzed using GraphPad Prism 7 following a “one site-Fit logIC50” competition model with any outliers (95 % confidence interval) being excluded.

[4] = tested on: HOXA9 gene expression in THP1 cells; assay: qRT-PCR analysis of HOXA9 gene expression in THP1 cells; assay type: cell-based, Human; conditions: 10 µM, 48 h
Description: Figure 7 Cellular activity of covalent, cyclic imine inhibitors to CBX8. a) qRT‐PCR analysis of HOXA9 gene expression in THP1 cells after 48 h of compound treatment at the indicated dose. N = 3. Error bars represent SD. Statistical significance was calculated using Student's t‐test. ** = p < 0.01, **** = p < 0.0001, b) qRT‐PCR analysis of HOXA9 gene expression in THP1 cells treated with increasing doses of compound for 48 h. N = 3. Error bars represent SD.
Figure S24. Cellular activity of covalent, cyclic imine inhibitors to CBX8. qRT-PCR analysis of HOXA9 gene expression in THP1 cells after 48 h of compound treatment at the indicated dose. N = 3. Error bars represent s.d. Statistical significance determined by Student’s T test. * = p <0.05, ** = p < 0.01, *** = p < 0.001, **** = p < 0.0001.
2.4 Cell Culture Cell line, Media and Culture Conditions HEK293T cells were cultured in Dubecco’s Modified Essential Media (DMEM), 10% fetal bovine serum (FBS, JR Scientific), 1% glutagro (Corning), 1% penicillin/streptomycin (Corning), 1% sodium pyruvate (Corning). Human THP1 cells were cultured in RPMI (Gibco), 10% FBS (J R Scientific), 1% Sodium pyruvate (Invitrogen), 1% Pen/Strep (Invitrogen), 1% Glutamax (Thermo Scientific), 0.1% 2-mercaptoethanol.
Cells were harvested after 48 h for RNA extraction. […] SYBR Green Mastermix (Thermo Scientific) was used for quantitative PCR. […]

- stability to long‐term incubation in PBS [1]: stability over the 24 h
- pIC50 ([2]; SW2_113 probe 100 nM, read-out: IC50 at time 0): 5.00
- pIC50 ([2]; IC50 at 20 h, probe 100 nM): 5.70
- pIC50 ([3]; read-out: IC50 at time 0): 4.77
- pIC50 ([3]; IC50 at 20 h): 4.82
- change in potency in time‐dependent FP assay ([3]; binding to CBX2): no change in potency
SMILES: CC[C@H](C)[C@H](NC(=O)[C@@H](NC(=O)c1ccc(Oc2ccccc2)cc1)C1CCCC1)C(=O)N[C@@H](CCCCN(CC)CCCCCCN1CCN=CC1=O)C(=O)N[C@@H](CO)C(N)=O [P1b]
- reduction of HOXA9 gene expression (in words) [4]: most effective at reducing HOXA9 gene expression
